molecular target: human PDE1b enzyme (Homo sapiens (Human), UniProt Q01064); experiment: PDE1b inhibitory assay (IMAP TR-FRET); settings: not given

Structure (SMILES)	EC50 [nM]
O=c1n(Cc2ccc(Cl)cc2)c2sc3c(c2c2ncnn12)CCOC3 [Example 87, 6-(4-Chlorobenzyl)-6,8,10,11-tetrahydro-5H-pyrano[4′,3′:4,5]thieno[3,2-e][1,2,4]triazolo[1,5-c]pyrimidin-5-one]	100 to 1000
Cc1cc2c(s1)n(Cc1cccc(Cl)c1)c(=O)n1ncnc21 [Example 16, 6-(3-Chlorobenzyl)-8-methylthieno[3,2-e][1,2,4]triazolo[1,5-c]pyrimidin-5(6H)-one]	1000 to 10000
Cc1sc2c(c1C)c1ncnn1c(=O)n2Cc1ccc(Cl)cc1 [Example 26, 6-(4-Chlorobenzyl)-8,9-dimethylthieno[3,2-e][1,2,4]triazolo[1,5-c]pyrimidin-5(6H)-one]	100 to 1000
CC(C)CCc1cc2c(s1)n(Cc1ccccc1Cl)c(=O)n1ncnc21 [Example 19, 6-(2-Chlorobenzyl)-8-isopentylthieno[3,2-e][1,2,4]triazolo[1,5-c]pyrimidin-5(6H)-one]	1000 to 10000
Cc1oc2c(c1C)c1ncnn1c(=O)n2Cc1ccc(Cl)cc1 [Example 79, 6-(4-Chlorobenzyl)-8,9-dimethylfuro[3,2-e][1,2,4]triazolo[1,5-c]pyrimidin-5(6H)-one]	100 to 1000
O=c1n(Cc2ccc(Cl)c(Cl)c2)c2sc3c(c2c2ncnn12)CCOC3 [Example 91, 6-(3,4-Dichlorobenzyl)-6,8,10,11-tetrahydro-5H-pyrano[4′,3′:4,5]thieno[3,2-e][1,2,4]triazolo[1,5-c]pyrimidin-5-one]	100 to 1000
CC(C)CCc1cc2c(s1)n(Cc1cccc(Cl)c1)c(=O)n1ncnc21 [Example 20, 6-(3-Chlorobenzyl)-8-isopentylthieno[3,2-e][1,2,4]triazolo[1,5-c]pyrimidin-5(6H)-one]	1000 to 10000
COc1ccc(Cn2c(=O)n3ncnc3c3cc(CN(C)C)sc32)cc1 [Example 30, 8-((Dimethylamino)methyl)-6-(4-methoxybenzyl)thieno[3,2-e][1,2,4]triazolo[1,5-c]pyrimidin-5(6H)-one]	100 to 1000
COc1ccc(Cn2c(=O)n3ncnc3c3c(C)c(Br)sc32)cc1 [Example 76, 8-Bromo-6-(4-methoxybenzyl)-9-methylthieno[3,2-e][1,2,4]triazolo[1,5-c]pyrimidin-5(6H)-one]	100 to 1000
COc1ccc(Cn2c(=O)n3ncnc3c3ccsc32)cc1 [Example 27, 6-(4-Methoxybenzyl)thieno[3,2-e][1,2,4]triazolo[1,5-c]pyrimidin-5(6H)-one]	100 to 1000
CCN(Cc1cc2c(s1)n(Cc1ccc(OC)cc1)c(=O)n1ncnc21)CC1CCOCC1 [Example 198, 8-((Ethyl((tetrahydro-2H-pyran-4-yl)methyl)amino)methyl)-6-(4-methoxybenzyl)thieno[3,2-e][1,2,4]triazolo[1,5-c]pyrimidin-5(6H)-one]	1000 to 10000
COc1ccc(Cn2c(=O)n3ncnc3c3c(C)csc32)cc1 [Example 28, 6-(4-Methoxybenzyl)-9-methylthieno[3,2-e][1,2,4]triazolo[1,5-c]pyrimidin-5(6H)-one]	100 to 1000
O=c1n(Cc2ccccc2Cl)c2sc(Cc3ccccc3)cc2c2ncnn12 [Example 8, 8-benzyl-6-(2-Chlorobenzyl)thieno[3,2-e][1,2,4]triazolo[1,5-c]pyrimidin-5(6H)-one]	100 to 1000

same assay, conditions: negative log of half-maximal molar inhibitory concentration; 200 nM FAM-cAMP; reported as ranges

Structure (SMILES)	PDE1b (pEC50)
COc1ccc(Cn2c(=O)n3ncnc3c3cc(CN4CCN(c5ccccc5F)CC4)sc32)cc1 [Example 186, 8-((4-(2-Fluorophenyl)piperazin-1-yl)methyl)-6-(4-methoxybenzyl)thieno[3,2-e][1,2,4]triazolo[1,5-c]pyrimidin-5(6H)-one]	>7
COc1ccc(Cn2c(=O)n3ncnc3c3c4c(sc32)CN(CC2CCOC2)CC4)c(F)c1 (stereo not shown) [Example 140, 6-(2-Fluoro-4-methoxybenzyl)-9-((tetrahydrofuran-3-yl)methyl)-8,9,10,11-tetrahydropyrido[4′,3′:4,5]thieno[3,2-e][1,2,4]triazolo[1,5-c]pyrimidin-5(6H)-one]	>7
COc1ccc(Cn2c(=O)n3ncnc3c3c(C)c(CN4CCCOCC4)sc32)cc1 [Example 61, 8-((1,4-Oxazepan-4-yl)methyl)-6-(4-methoxybenzyl)-9-methylthieno[3,2-e][1,2,4]triazolo[1,5-c]pyrimidin-5(6H)-one]	>7
COc1ccc(Cn2c(=O)n3ncnc3c3cc(CN4CC5CC4CO5)sc32)cc1 (stereo not shown) [Example 37, 8-(2-Oxa-5-azabicyclo[2.2.1]heptan-5-ylmethyl)-6-(4-methoxybenzyl)thieno[3,2-e][1,2,4]triazolo[1,5-c]pyrimidin-5(6H)-one]	>7
COc1ccc(Cn2c(=O)n3ncnc3c3cc(CN4C[C@@H](C)O[C@@H](C)C4)sc32)cc1 [Example 33, 8-(((2S,6R)-2,6-Dimethylmorpholino)methyl)-6-(4-methoxybenzyl)thieno[3,2-e][1,2,4]triazolo[1,5-c]pyrimidin-5(6H)-one]	>7
COc1ccc(Cn2c(=O)n3ncnc3c3c4c(sc32)N(C(=O)C2CC2)CCC4)cc1 [Example 174, 8-(Cyclopropanecarbonyl)-6-(4-methoxybenzyl)-8,9,10,11-tetrahydropyrido[3′,2′:4,5]thieno[3,2-e][1,2,4]triazolo[1,5-c]pyrimidin-5(6H)-one]	>7
COc1ccc(Cn2c(=O)n3ncnc3c3c4c(sc32)CN(CC2CCC(=O)O2)CC4)cc1 (stereo not shown) [Example 126]	>7
COc1ccc(Cn2c(=O)n3ncnc3c3c4c(sc32)CN(CC2CCOCC2)CCC4)cc1 [Example 147, 6-(4-Methoxybenzyl)-9-((tetrahydro-2H-pyran-4-yl)methyl)-6,8,9,10,11,12-hexahydro-5H-[1,2,4]triazolo[1″,5″:1′,6′]pyrimido[5′,4′:4,5]thieno[2,3-c]azepin-5-one]	>7
COc1ccc(Cn2c(=O)n3ncnc3c3c4c(sc32)CN(Cc2ccncc2)CC4)cc1 [Example 121, 6-(4-Methoxybenzyl)-9-(pyridin-4-ylmethyl)-8,9,10,11-tetrahydropyrido[4′,3′:4,5]thieno[3,2-e][1,2,4]triazolo[1,5-c]pyrimidin-5(6H)-one]	>7
COc1ccc(Cn2c(=O)n3ncnc3c3c(CN4CCC(Oc5ccccc5)C4)csc32)cc1 (stereo not shown) [Example 189, 6-(4-Methoxybenzyl)-9-((3-phenoxypyrrolidin-1-yl)methyl)thieno[3,2-e][1,2,4]triazolo[1,5-c]pyrimidin-5(6H)-one]	>7
COc1ccc(Cn2c(=O)n3ncnc3c3c4c(sc32)CNCC4(F)F)cc1 [Example 219, 11,11-Difluoro-6-(4-methoxybenzyl)-8,9,10,11-tetrahydropyrido[4′,3′:4,5]thieno[3,2-e][1,2,4]triazolo[1,5-c]pyrimidin-5 (6H)-one]	>7
COc1ccc(Cn2c(=O)n3ncnc3c3c(C)c(CN(C)CC4CCCO4)sc32)cc1 (stereo not shown) [Example 54, 6-(4-Methoxybenzyl)-9-methyl-8-((methyl((tetrahydrofuran-2-yl)methyl)amino)methyl)thieno[3,2-e][1,2,4]triazolo[1,5-c]pyrimidin-5(6H)-one]	>7
COc1ccc(Cn2c(=O)n3ncnc3c3cc(CN4CCCOCC4)sc32)c(F)c1F [Example 194, 8-((1,4-Oxazepan-4-yl)methyl)-6-(2,3-difluoro-4-methoxybenzyl)thieno[3,2-e][1,2,4]triazolo[1,5-c]pyrimidin-5(6H)-one]	>7
COc1ccc(Cn2c(=O)n3ncnc3c3c4c(sc32)NCCC4)cc1 [Example 220, 6-(4-Methoxybenzyl)-8,9,10,11-tetrahydropyrido[3′,2′:4,5]thieno[3,2-e][1,2,4]triazolo[1,5-c]pyrimidin-5(6H)-one]	>7
COc1ccc(Cn2c(=O)n3ncnc3c3c4c(sc32)CN(Cc2ncccn2)CC4)cc1 [Example 116, 6-(4-Methoxybenzyl)-9-(pyrimidin-2-ylmethyl)-8,9,10,11-tetrahydropyrido[4′,3′:4,5]thieno[3,2-e][1,2,4]triazolo[1,5-c]pyrimidin-5 (6H)-one]	>7
COc1ccc(Cn2c(=O)n3ncnc3c3c4c(sc32)CN(C(=O)C2CCOC2)CC4(F)F)cc1 (stereo not shown) [Example 166, 11,11-Difluoro-6-(4-methoxybenzyl)-9-(tetrahydrofuran-3-carbonyl)-8,9,10,11-tetrahydropyrido[4′,3′:4,5]thieno[3,2-e][1,2,4]triazolo[1,5-c]pyrimidin-5 (6H)-one]	>7
COc1ccc(Cn2c(=O)n3ncnc3c3c(C)c(CNC4CC4)sc32)cc1 [Example 57, 8-((Cyclopropylamino)methyl)-6-(4-methoxybenzyl)-9-methylthieno[3,2-e][1,2,4]triazolo[1,5-c]pyrimidin-5(6H)-one]	>7
Cc1cc2c(s1)n(Cc1ccc(-c3ccccc3)cc1)c(=O)n1ncnc21 [Example 14, 6-([1,1′-Biphenyl]-4-ylmethyl)-8-methylthieno[3,2-e][1,2,4]triazolo[1,5-c]pyrimidin-5(6H)-one]	<5
COc1ccc(Cn2c(=O)n3ncnc3c3c4c(sc32)CN(CC2CCOC2)CC4)cc1 (stereo not shown) [Example 113, 6-(4-Methoxybenzyl)-9-((tetrahydrofuran-3-yl)methyl)-8,9,10,11-tetrahydropyrido[4′,3′:4,5]thieno[3,2-e][1,2,4]triazolo[1,5-c]pyrimidin-5(6H)-one]	>7
COc1ccc(Cn2c(=O)n3ncnc3c3c4c(sc32)N(CC2CCCOC2)CCC4)cc1 (stereo not shown) [Example 149, 6-(4-Methoxybenzyl)-8-((tetrahydro-2H-pyran-3-yl)methyl)-8,9,10,11-tetrahydropyrido[3′,2′:4,5]thieno[3,2-e][1,2,4]triazolo[1,5-c]pyrimidin-5(6H)-one]	>7
COc1ccc(Cn2c(=O)n3ncnc3c3c4c(sc32)CN(Cc2ccccn2)CC4)c(F)c1 [Example 139, 6-(2-Fluoro-4-methoxybenzyl)-9-(pyridin-2-ylmethyl)-8,9,10,11-tetrahydropyrido[4′,3′:4,5]thieno[3,2-e][1,2,4]triazolo[1,5-c]pyrimidin-5 (6H)-one]	>7

Source: patent US10092575B2, “Substituted thiophene- and furan-fused azolopyrimidine-5-(6H)-one compounds” (DART NEUROSCIENCE (CAYMAN) LTD., priority 2012, dated 2018)
